Where two headings read alike, the source gives them in different places. Peptide text beside a SMILES is read from it.
What was measured:
Format in all cases: biochemical
HDAC2 = biological target: T1, HDAC2 (Homo sapiens, UniProt Q92769); assay: HDAC2 inhibition, full IC50 measurement (Reaction Biology; fluorogenic p53 peptide RHKK(Ac)AMC); details: for IC50: read-out: HDAC2 IC50
T1 construct: purchased Reaction Biology Corporation (assay run by the CRO)
Procedure, shortened: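 Reaction: enzyme plus acoustically dispensed peptide inhibitor, 50 μM RHKK(Ac)AMC substrate, pH 8.0 Tris buffer with BSA and 1% DMSO, 1 h, 30 °C. Duplicates averaged.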

HDAC1 = biological target: T2, HDAC1 (Homo sapiens, UniProt Q13547); assay: HDAC1 inhibition, full IC50 measurement (Reaction Biology; fluorogenic p53 peptide RHKK(Ac)AMC); details: for HDAC1 activity raw data (signal): t1/t2 replicates
T2 construct: purchased Reaction Biology Corporation (assay run by the CRO)
Method: (§1) The assay was performed using 50 μM fluorogenic peptide from p53 residues 379-382 [RHKK(Ac)AMC] in a base reaction buffer of 50 mM Tris-HCl at pH 8.0, 137 mM NaCl, 2.7 mM KCl, 1 mM MgCl2, and freshly added 1 mg/ml BSA and 1% DMSO. Peptides were first dissolved in DMSO and then added to the reaction mixture with the enzyme using acoustic technique, enough to reach the desired concentration for that assay point. Peptide concentrations were calculated based on mass of lyophilized peptide and its molecular weight. The substrate was then added and incubated for 1 hour at 30 °C in a sealed container. After the incubation, developer was added to stop the reaction and develop color. Kinetic measurements were then performed for 20 min with Envision with 5 min intervals (Ex/Em = 360/460 nm). The endpoint after plateau was taken for IC50 measurement.
(§2) In cases where duplicate measures are used, average data is reported in the main text or Supplementary Tables.

HDAC8 = biological target: T3, HDAC8 (Homo sapiens, UniProt Q9BY41); assay: HDAC8 inhibition, full IC50 measurement (Reaction Biology; fluorogenic p53 peptide RHKK(Ac)AMC); details: for HDAC8 activity raw data (signal): t1/t2 replicates
T3 construct: purchased Reaction Biology Corporation (assay run by the CRO)
T3 sequence (Q9BY41 1-377): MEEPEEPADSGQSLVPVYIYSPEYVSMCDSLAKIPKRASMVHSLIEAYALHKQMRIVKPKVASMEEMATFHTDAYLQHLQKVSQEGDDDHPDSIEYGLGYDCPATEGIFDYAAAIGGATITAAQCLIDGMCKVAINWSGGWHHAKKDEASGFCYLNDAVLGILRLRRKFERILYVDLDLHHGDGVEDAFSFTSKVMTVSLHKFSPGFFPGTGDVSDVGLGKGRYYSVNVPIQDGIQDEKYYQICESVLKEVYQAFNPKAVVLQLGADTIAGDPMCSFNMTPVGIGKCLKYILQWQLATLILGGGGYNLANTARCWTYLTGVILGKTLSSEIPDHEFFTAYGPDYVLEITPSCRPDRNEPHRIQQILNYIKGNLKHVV
Method: as §1, §2

[1] = peptide conc. 1.00E-05 M, listed as des1.1.0_t1
[2] = peptide conc. 1.00E-05 M, listed as des1.1.0_t2
[3] = peptide conc. 1.11E-06 M, listed as des1.1.0_t1
[4] = peptide conc. 1.11E-06 M, listed as des1.1.0_t2
[5] = peptide conc. 1.23E-07 M, listed as des1.1.0_t1
[6] = peptide conc. 1.23E-07 M, listed as des1.1.0_t2
[7] = peptide conc. 1.37E-08 M, listed as des1.1.0_t1
[8] = peptide conc. 1.52E-09 M, listed as des1.1.0_t1
[9] = peptide conc. 1.52E-09 M, listed as des1.1.0_t2
[10] = peptide conc. 3.33E-06 M, listed as des1.1.0_t1
[11] = peptide conc. 3.33E-06 M, listed as des1.1.0_t2
[12] = peptide conc. 3.70E-07 M, listed as des1.1.0_t1
[13] = peptide conc. 3.70E-07 M, listed as des1.1.0_t2
[14] = peptide conc. 4.12E-08 M, listed as des1.1.0_t1
[15] = peptide conc. 4.12E-08 M, listed as des1.1.0_t2
[16] = peptide conc. 4.57E-09 M, listed as des1.1.0_t1
[17] = peptide conc. 4.57E-09 M, listed as des1.1.0_t2
[18] = peptide conc. 5.08E-10 M, listed as des1.1.0_t1
[19] = peptide conc. 5.08E-10 M, listed as des1.1.0_t2

T2 sequence (Q13547 whole entry): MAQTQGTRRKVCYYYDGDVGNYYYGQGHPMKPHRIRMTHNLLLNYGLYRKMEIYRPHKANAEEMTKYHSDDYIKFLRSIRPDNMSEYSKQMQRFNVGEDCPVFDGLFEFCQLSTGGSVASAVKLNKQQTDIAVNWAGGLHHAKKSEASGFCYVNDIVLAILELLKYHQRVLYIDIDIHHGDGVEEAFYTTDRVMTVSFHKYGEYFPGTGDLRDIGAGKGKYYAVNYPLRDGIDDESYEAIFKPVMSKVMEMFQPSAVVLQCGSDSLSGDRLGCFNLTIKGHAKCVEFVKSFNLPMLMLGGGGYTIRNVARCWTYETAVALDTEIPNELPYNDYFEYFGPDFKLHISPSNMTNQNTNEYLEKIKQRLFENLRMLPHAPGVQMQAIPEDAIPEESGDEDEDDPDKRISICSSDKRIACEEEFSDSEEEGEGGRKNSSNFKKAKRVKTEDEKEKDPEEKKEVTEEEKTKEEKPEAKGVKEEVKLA
T1 sequence (Q92769 whole entry): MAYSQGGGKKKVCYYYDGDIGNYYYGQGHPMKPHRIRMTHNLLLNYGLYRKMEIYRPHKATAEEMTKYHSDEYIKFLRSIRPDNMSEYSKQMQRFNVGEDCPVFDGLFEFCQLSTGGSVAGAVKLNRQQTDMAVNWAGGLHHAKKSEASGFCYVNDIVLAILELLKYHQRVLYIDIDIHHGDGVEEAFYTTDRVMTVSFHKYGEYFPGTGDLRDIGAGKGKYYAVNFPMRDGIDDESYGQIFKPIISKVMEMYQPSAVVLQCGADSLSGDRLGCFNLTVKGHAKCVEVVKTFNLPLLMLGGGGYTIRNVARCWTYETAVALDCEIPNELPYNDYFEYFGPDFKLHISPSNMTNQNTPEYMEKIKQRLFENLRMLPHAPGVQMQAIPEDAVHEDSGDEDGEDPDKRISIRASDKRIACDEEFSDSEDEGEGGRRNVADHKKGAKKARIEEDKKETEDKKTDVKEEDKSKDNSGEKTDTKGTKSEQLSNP

## N[C@@H](CCCCCS)C(=O)O [SHA, 2S-2-amino-7-sulfanylheptanoic acid]
HDAC2
  HDAC2 inhibition potency in words: low micro-molar to high nano-molar affinities
  IC50: 5400 nM
HDAC2; Conc. 1.00E-05 M
  HDAC2 raw activity signal: 210566
HDAC2; Conc. 1.11E-06 M
  HDAC2 raw activity signal: 643731
HDAC2; Conc. 1.23E-07 M
  HDAC2 raw activity signal: 728862
HDAC2; Conc. 1.37E-08 M
  HDAC2 raw activity signal: 787686
HDAC2; Conc. 1.52E-09 M
  HDAC2 raw activity signal: 708004
HDAC2; Conc. 3.33E-06 M
  HDAC2 raw activity signal: 523867
HDAC2; Conc. 3.70E-07 M
  HDAC2 raw activity signal: 682189
HDAC2; Conc. 4.12E-08 M
  HDAC2 raw activity signal: 772929
HDAC2; Conc. 4.57E-09 M
  HDAC2 raw activity signal: 735698
HDAC2; Conc. 5.08E-10 M
  HDAC2 raw activity signal: 743884
HDAC1
  HDAC1 inhibition potency in words: low micro-molar to high nano-molar affinities
HDAC1; Conc. 1.00E-05 M
  HDAC1 raw activity signal: 155805
HDAC1; Conc. 1.11E-06 M
  HDAC1 raw activity signal: 648714
HDAC1; Conc. 1.23E-07 M
  HDAC1 raw activity signal: 748850
HDAC1; Conc. 1.37E-08 M
  HDAC1 raw activity signal: 768411
HDAC1; Conc. 1.52E-09 M
  HDAC1 raw activity signal: 737474
HDAC1; Conc. 3.33E-06 M
  HDAC1 raw activity signal: 525567
HDAC1; Conc. 3.70E-07 M
  HDAC1 raw activity signal: 713862
HDAC1; Conc. 4.12E-08 M
  HDAC1 raw activity signal: 763721
HDAC1; Conc. 4.57E-09 M
  HDAC1 raw activity signal: 780017
HDAC1; Conc. 5.08E-10 M
  HDAC1 raw activity signal: 759317
HDAC8
  HDAC8 inhibition potency in words: low micro-molar to high nano-molar affinities
HDAC8; Conc. 1.00E-05 M
  HDAC8 raw activity signal: 485885
HDAC8; Conc. 1.11E-06 M
  HDAC8 raw activity signal: 715893
HDAC8; Conc. 1.23E-07 M
  HDAC8 raw activity signal: 664184
HDAC8; Conc. 1.37E-08 M
  HDAC8 raw activity signal: 813063
HDAC8; Conc. 1.52E-09 M
  HDAC8 raw activity signal: 850527
HDAC8; Conc. 3.33E-06 M
  HDAC8 raw activity signal: 572309
HDAC8; Conc. 3.70E-07 M
  HDAC8 raw activity signal: 755715
HDAC8; Conc. 4.12E-08 M
  HDAC8 raw activity signal: 855669
HDAC8; Conc. 4.57E-09 M
  HDAC8 raw activity signal: 817878
HDAC8; Conc. 5.08E-10 M
  HDAC8 raw activity signal: 743919

## NCCCC[C@@H]1NC(=O)[C@@H]2CCCN2C(=O)[C@H](CC(N)=O)NC(=O)[C@H](CCCCCS)NC(=O)CNC(=O)[C@H](Cc2c[nH]c3ccccc23)NC(=O)[C@@H](CCCCN)NC(=O)[C@H](CCC(N)=O)NC1=O [des1.1.0, SHA-Asn-Pro-Lys-Gln-dLys-Trp-Gly] (HELM PEPTIDE1{G.[O=C([C@H](CCCCCS)N[*:1])[*:2]].N.P.K.Q.[dK].W}$PEPTIDE1,PEPTIDE1,1:R1-8:R2$$$V2.0)
HDAC2; Conc. 1.00E-05 M, t1
  HDAC2 activity raw data (signal): 26927
HDAC2; Conc. 1.00E-05 M, t2
  HDAC2 activity raw data (signal): 32005
HDAC2; Conc. 1.11E-06 M, t1
  HDAC2 activity raw data (signal): 219707
HDAC2; Conc. 1.11E-06 M, t2
  HDAC2 activity raw data (signal): 218492
HDAC2; Conc. 1.23E-07 M, t1
  HDAC2 activity raw data (signal): 761586
HDAC2; Conc. 1.23E-07 M, t2
  HDAC2 activity raw data (signal): 802228
HDAC2; Conc. 1.37E-08 M, t1
  HDAC2 activity raw data (signal): 1027147
HDAC2; Conc. 1.37E-08 M, t2
  HDAC2 activity raw data (signal): 1098979
HDAC2; Conc. 1.52E-09 M, t1
  HDAC2 activity raw data (signal): 1105616
HDAC2; Conc. 1.52E-09 M, t2
  HDAC2 activity raw data (signal): 1105020
HDAC2; Conc. 3.33E-06 M, t1
  HDAC2 activity raw data (signal): 102737
HDAC2; Conc. 3.33E-06 M, t2
  HDAC2 activity raw data (signal): 85727
HDAC2; Conc. 3.70E-07 M, t1
  HDAC2 activity raw data (signal): 469170
HDAC2; Conc. 3.70E-07 M, t2
  HDAC2 activity raw data (signal): 506124
HDAC2; Conc. 4.12E-08 M, t1
  HDAC2 activity raw data (signal): 943203
HDAC2; Conc. 4.12E-08 M, t2
  HDAC2 activity raw data (signal): 906297
HDAC2; Conc. 4.57E-09 M, t1
  HDAC2 activity raw data (signal): 1010930
HDAC2; Conc. 4.57E-09 M, t2
  HDAC2 activity raw data (signal): 1048769
HDAC2; Conc. 5.08E-10 M, t1
  HDAC2 activity raw data (signal): 1134293
HDAC2; Conc. 5.08E-10 M, t2
  HDAC2 activity raw data (signal): 1187103
HDAC2; figure legends, Supp. Table 1
  IC50: 289 nM
HDAC1; [1]
  HDAC1 activity raw data (signal): 20784
HDAC1; [2]
  HDAC1 activity raw data (signal): 14494
HDAC1; [3]
  HDAC1 activity raw data (signal): 173781
HDAC1; [4]
  HDAC1 activity raw data (signal): 153537
HDAC1; [5]
  HDAC1 activity raw data (signal): 723204
HDAC1; [6]
  HDAC1 activity raw data (signal): 656726
HDAC1; [7]
  HDAC1 activity raw data (signal): 1174733
HDAC1; peptide conc. 1.37E-08 M, listed as des1.1.0_t2
  HDAC1 activity raw data (signal): 1037204
HDAC1; [8]
  HDAC1 activity raw data (signal): 1283411
HDAC1; [9]
  HDAC1 activity raw data (signal): 1084142
HDAC1; [10]
  HDAC1 activity raw data (signal): 63841
HDAC1; [11]
  HDAC1 activity raw data (signal): 53160
HDAC1; [12]
  HDAC1 activity raw data (signal): 422237
HDAC1; [13]
  HDAC1 activity raw data (signal): 392419
HDAC1; [14]
  HDAC1 activity raw data (signal): 1039124
HDAC1; [15]
  HDAC1 activity raw data (signal): 863645
HDAC1; [16]
  HDAC1 activity raw data (signal): 1182029
HDAC1; [17]
  HDAC1 activity raw data (signal): 1065379
HDAC1; [18]
  HDAC1 activity raw data (signal): 1239936
HDAC1; [19]
  HDAC1 activity raw data (signal): 1111104
HDAC8; [1]
  HDAC8 activity raw data (signal): 10236983
HDAC8; [2]
  HDAC8 activity raw data (signal): 10257985
HDAC8; [3]
  HDAC8 activity raw data (signal): 29747792
HDAC8; [4]
  HDAC8 activity raw data (signal): 28102681
HDAC8; [5]
  HDAC8 activity raw data (signal): 42994609
HDAC8; [6]
  HDAC8 activity raw data (signal): 40726222
HDAC8; [7]
  HDAC8 activity raw data (signal): 47328720
HDAC8; [8]
  HDAC8 activity raw data (signal): 53395040
HDAC8; [9]
  HDAC8 activity raw data (signal): 46072556
HDAC8; [10]
  HDAC8 activity raw data (signal): 22600954
HDAC8; [11]
  HDAC8 activity raw data (signal): 20891410
HDAC8; [12]
  HDAC8 activity raw data (signal): 39809686
HDAC8; [13]
  HDAC8 activity raw data (signal): 39972357
HDAC8; [14]
  HDAC8 activity raw data (signal): 43706367
HDAC8; [15]
  HDAC8 activity raw data (signal): 45310513
HDAC8; [16]
  HDAC8 activity raw data (signal): 46840747
HDAC8; [17]
  HDAC8 activity raw data (signal): 46072556
HDAC8; [18]
  HDAC8 activity raw data (signal): 54262535
HDAC8; [19]
  HDAC8 activity raw data (signal): 46072556
